Patent publication US8309718B2, “4-pyrazolyl-N-arylpyrimidin-2-amines and 4-pyrazolyl-N-heteroarylpyrimidin-2-amines as janus kinase inhibitors” (Incyte Corporation, priority 2007, dated 2012)
pIC50: −log10 of the molar value.

These compounds were tested against T1, human JAK2 (Homo sapiens, UniProt O60674) (assay: In vitro JAK kinase assay (HTRF, phosphorylation of biotinylated peptide)). Conditions: catalytic domain a.a. 828-1132, 30 μM ATP, 500 nM peptide, room temperature 1 hr; read-out: JAK-2 IC50.
T1 construct: JAK2 (a.a. 828-1132); His tag (N); made in house; host or cells: insect cells (baculovirus)
Format: biochemical
Summary of the method: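 His-tagged human JAK2 catalytic domain (a.a. 828-1132), baculovirus/insect-cell expressed; phosphorylation of 500 nM biotinylated peptide at 30 μM ATP in 50 mM Tris pH 7.8, 100 mM NaCl, 5 mM DTT, 0.01% BSA. 1 h at room temperature, EDTA stop, HTRF read (Eu-Py20/SA-APC); IC50.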

T1 sequence (O60674 828-1132): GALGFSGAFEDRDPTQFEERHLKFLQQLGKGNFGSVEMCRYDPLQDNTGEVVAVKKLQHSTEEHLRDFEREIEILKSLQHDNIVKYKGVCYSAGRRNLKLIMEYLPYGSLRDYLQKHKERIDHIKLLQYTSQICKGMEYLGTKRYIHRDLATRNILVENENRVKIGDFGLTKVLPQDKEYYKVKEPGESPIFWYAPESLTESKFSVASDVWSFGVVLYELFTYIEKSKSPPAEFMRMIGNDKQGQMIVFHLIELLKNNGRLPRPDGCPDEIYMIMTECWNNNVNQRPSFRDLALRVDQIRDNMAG

Compound	pIC50
N#CCC(C1CCCC1)n1cc(-c2ccnc(Nc3ccc(NC(=O)CNCC4CC4)cc3)n2)cn1 (racemic) [Example 210, N-(4-(4-(1-(2-cyano-1-cyclopentylethyl)-1H-pyrazol-4-yl)pyrimidin-2-ylamino)phenyl)-2-(cyclopropylmethylamino)acetamide]	> 7.00
N#CCC(C1CCCC1)n1cc(-c2ccnc(Nc3ccc(C(=O)N4CCOCC4)cc3)n2)cn1 (racemic) [Example 213, 3-cyclopentyl-3-(4-(2-(4-(morpholine-4-carbonyl)phenylamino)pyrimidin-4-yl)-1H-pyrazol-1-yl)propanenitrile]	> 7.00
N#CCC(C1CCCC1)n1cc(-c2ccnc(Nc3ccc(C(=O)NCC4CCOCC4)cc3)n2)cn1 (racemic) [Example 214, 4-(4-(1-(2-cyano-1-cyclopentylethyl)-1H-pyrazol-4-yl)pyrimidin-2-ylamino)-N-((tetrahydro-2H-pyran-4-yl)methyl)benzamide]	> 7.00
N#CCC(C1CCCC1)n1cc(-c2ccnc(Nc3ccc(C(=O)N4[C@@H]5CC[C@H]4C[C@@H](O)C5)cc3)n2)cn1 (mixture of isomers) [Example 215, 3-cyclopentyl-3-(4-(2-(4-((3-endo)-3-hydroxy-8-azabicyclo[3.2.1]octane-8-carbonyl)phenylamino)pyrimidin-4-yl)-1H-pyrazol-1-yl)propanenitrile]	> 7.00
N#CCC(C1CCCC1)n1cc(-c2ccnc(Nc3ccc(C(=O)N4C5CC6CC4CC(C5)O6)cc3)n2)cn1 (racemic) [Example 216, 3-cyclopentyl-3-(4-(2-(4-(2-oxa-6-azatricyclo[3.3.1.1(3,7)]dec-6-ylcarbonyl)phenyl)aminopyrimidin-4-yl)-1H-pyrazol-1-yl)propanenitrile]	> 7.00
CN(C(=O)c1ccc(Nc2nccc(-c3cnn(C(CC#N)C4CCCC4)c3)n2)cc1)[C@H]1CC[C@@H](O)CC1 (mixture of isomers) [Example 217, 4-(4-(1-(2-cyano-1-cyclopentylethyl)-1H-pyrazol-4-yl)pyrimidin-2-ylamino)-N-(cis-4-hydroxycyclohexyl)-N-methylbenzamide]	> 7.00
CN(C(=O)c1ccc(Nc2nccc(-c3cnn(C(CC#N)C4CCCC4)c3)n2)cc1)C1CCOCC1 (racemic) [Example 218, 4-(4-(1-(2-cyano-1-cyclopentylethyl)-1H-pyrazol-4-yl)pyrimidin-2-ylamino)-N-methyl-N-(tetrahydro-2H-pyran-4-yl)benzamide]	> 7.00
COC1CCN(C(=O)c2ccc(Nc3nccc(-c4cnn(C(CC#N)C5CCCC5)c4)n3)cc2)CC1 (racemic) [Example 221, 3-cyclopentyl-3-(4-(2-(4-(4-methoxypiperidine-1-carbonyl)phenylamino)pyrimidin-4-yl)-1H-pyrazol-1-yl)propanenitrile]	> 7.00
N#CCC(C1CCCC1)n1cc(-c2ccnc(Nc3ccc(C(=O)N[C@H]4CC[C@@H](O)CC4)cc3)n2)cn1 (mixture of isomers) [Example 223, 4-(4-(1-(2-cyano-1-cyclopentylethyl)-1H-pyrazol-4-yl)pyrimidin-2-ylamino)-N-(cis-4-hydroxycyclohexyl)benzamide]	> 7.00
CC(=O)N1CCN(C(=O)c2ccc(Nc3nccc(-c4cnn(C(CC#N)C5CCCC5)c4)n3)cc2)CC1 (racemic) [Example 224, 3-(4-(2-(4-(4-acetylpiperazine-1-carbonyl)phenylamino)pyrimidin-4-yl)-1H-pyrazol-1-yl)-3-cyclopentylpropanenitrile]	> 7.00
CN1CCC(NC(=O)c2ccc(Nc3nccc(-c4cnn(C(CC#N)C5CCCC5)c4)n3)cc2)CC1 (racemic) [Example 227, 4-(4-(1-(2-cyano-1-cyclopentylethyl)-1H-pyrazol-4-yl)pyrimidin-2-ylamino)-N-(1-methylpiperidin-4-yl)benzamide]	> 7.00
N#CCC(C1CCCC1)n1cc(-c2ccnc(Nc3ccc(C(=O)N4CCC5(CC4)CNC(=O)C5)cc3)n2)cn1 (racemic) [Example 228, 3-cyclopentyl-3-(4-(2-(4-(3-oxo-2,8-diazaspiro[4.5]decane-8-carbonyl)phenylamino)pyrimidin-4-yl)-1H-pyrazol-1-yl)propanenitrile]	> 7.00
CCOC(=O)N1CCC(NC(=O)c2ccc(Nc3nccc(-c4cnn(C(CC#N)C5CCCC5)c4)n3)cc2)CC1 (racemic) [Example 231, Ethyl 4-(4-(4-(1-(2-cyano-1-cyclopentylethyl)-1H-pyrazol-4-yl)pyrimidin-2-ylamino)benzamido)piperidine-1-carboxylate]	> 7.00

More lines, now with the values ahead:

pIC50	Compound
> 7.00	N#CCC(C1CCCC1)n1cc(-c2ccnc(Nc3ccc(NC(=O)O[C@@H]4CCOC4)cc3)n2)cn1 (mixture of isomers) [Example 199, (R)-tetrahydrofuran-3-yl 4-(4-(1-(2-cyano-1-cyclopentylethyl)-1H-pyrazol-4-yl)pyrimidin-2-ylamino)phenylcarbamate]
> 7.00	Cn1ccc(S(=O)(=O)Nc2cccc(Nc3nccc(-c4cnn(C(CC#N)C5CCCC5)c4)n3)c2)n1 (racemic) [Example 201, N-(3-(4-(1-(2-cyano-1-cyclopentylethyl)-1H-pyrazol-4-yl)pyrimidin-2-ylamino)phenyl)-1-methyl-1H-pyrazole-3-sulfonamide]
> 7.00	CN(C)S(=O)(=O)Nc1cccc(Nc2nccc(-c3cnn(C(CC#N)C4CCCC4)c3)n2)c1 (racemic) [Example 202, NA-(3-(4-(1-(2-cyano-1-cyclopentylethyl)-1H-pyrazol-4-yl)pyrimidin-2-ylamino)phenyl)-N,N-dimethylsulfamide]
> 7.00	N#CCC(C1CCCC1)n1cc(-c2ccnc(Nc3ccc(NC(=O)CN4CCCC4)cc3)n2)cn1 (racemic) [Example 203, N-(4-(4-(1-(2-cyano-1-cyclopentylethyl)-1H-pyrazol-4-yl)pyrimidin-2-ylamino)phenyl)-2-(pyrrolidin-1-yl)acetamide]
> 7.00	N#CCC(C1CCCC1)n1cc(-c2ccnc(Nc3ccc(NC(=O)CN4CCC(O)CC4)cc3)n2)cn1 (racemic) [Example 205, N-(4-(4-(1-(2-cyano-1-cyclopentylethyl)-1H-pyrazol-4-yl)pyrimidin-2-ylamino)phenyl)-2-(4-hydroxypiperidin-1-yl)acetamide]
> 7.00	N#CCC(C1CCCC1)n1cc(-c2ccnc(Nc3ccc(NC(=O)CN4CCNC(=O)C4)cc3)n2)cn1 (racemic) [Example 206, N-(4-(4-(1-(2-cyano-1-cyclopentylethyl)-1H-pyrazol-4-yl)pyrimidin-2-ylamino)phenyl)-2-(3-oxopiperazin-1-yl)acetamide]
> 7.00	N#CCC(C1CCCC1)n1cc(-c2ccnc(Nc3ccc(NC(=O)CN4CCOCC4)cc3)n2)cn1 (racemic) [Example 207, N-(4-(4-(1-(2-cyano-1-cyclopentylethyl)-1H-pyrazol-4-yl)pyrimidin-2-ylamino)phenyl)-2-morpholinoacetamide]
> 7.00	N#CCC(C1CCCC1)n1cc(-c2ccnc(Nc3ccc(NC(=O)CNCC4CCOCC4)cc3)n2)cn1 (racemic) [Example 208, N-(4-(4-(1-(2-cyano-1-cyclopentylethyl)-1H-pyrazol-4-yl)pyrimidin-2-ylamino)phenyl)-2-((tetrahydro-2H-pyran-4-yl)methylamino)acetamide]
